# Assay results from ChEMBL document CHEMBL4811258, “Potent Antimalarials with Development Potential Identified by Structure-Guided Computational Optimization of a Pyrrole-Based Dihydroorotate Dehydrogenase Inhibitor Series” (J Med Chem, 2021).
# Assays:
# Plasmodium falciparum [1] = assay: microbe, parasite or virus in culture; conditions: 3D7, 72 h
# [2] = Inhibition of Plasmodium falciparum DHODH expressed in Escherichia coli BL21-DE3 using L-dihydroorotate as substrate by steady-state DCIP method
# Plasmodium falciparum [3] = test system: Plasmodium falciparum
SMILES,EC50 (Plasmodium falciparum [1]) [µM],IC50 [2] [µM],EC50 (Plasmodium falciparum [3]) [µM]
Cc1c(-c2n[nH]c3nc(C(F)(F)F)ccc23)c[nH]c1C(=O)NCC(F)(F)F,> 10,3.9,
COC1COCC1NC(=O)c1[nH]cc(Cc2ccc(C(F)(F)F)nc2)c1C (stereo not drawn),1.1,17,
Cc1c(-c2n[nH]c3nc(C(F)(F)F)ccc23)c[nH]c1C(=O)N1CC(F)(F)C1,> 10,2.1,
COC(=O)c1c(Cc2ccc(C(F)(F)F)nc2)c[nH]c1C(=O)NC1CC1,1.4,6.4,
CNC(=O)[C@@H](C)NC(=O)c1[nH]cc(Cc2ccc(C(F)(F)F)nc2)c1C,8.9,39,
Cc1c(Cc2ccc(C(F)(F)F)nc2)c[nH]c1C(=O)NC1COC1,0.074,0.11,
Cc1c(Cc2ccc(S(=O)(=O)N(C)C)cc2)c[nH]c1C(=O)NC1CC1,0.7,1.5,
CNC(=O)c1c(Cc2ccc(C(F)(F)F)nc2)c[nH]c1C(=O)NC1CC1,3.4,16,
Cc1c(-c2c[nH]c3cc(C(F)(F)F)ccc23)c[nH]c1C(=O)NCC(F)(F)F,1.2,18,
Cc1c(Cc2ccc(C(F)(F)F)nc2)c[nH]c1C(=O)N[C@H](C)C(N)=O,> 10,> 100,
Cc1c(-c2c[nH]c3nc(C(F)(F)F)ccc23)c[nH]c1C(=O)NCC(F)(F)F,0.05,0.5,
NC(=O)c1c(Cc2ccc(C(F)(F)F)nc2)c[nH]c1C(=O)NC1CC1,2.1,4.9,
Cc1c(-c2c[nH]c3cc(C(F)(F)F)ccc23)c[nH]c1C(=O)NC1CC1,0.19,1.6,
Cc1c(-c2n[nH]c3cc(C(F)(F)F)ccc23)c[nH]c1C(=O)NCC(F)(F)F,0.61,22,
Cc1c(Cc2ccc(C(F)(F)F)nc2)c[nH]c1C(=O)NCc1cc[nH]n1,1.4,17,
Cc1c(Cc2ccc(C(F)(F)F)nc2)c[nH]c1C(=O)N[C@H](C)CO,2.1,2.7,
Cc1c(-c2n[nH]c3cc(C(F)(F)F)ccc23)c[nH]c1C(=O)NC1CC1,0.25,4.1,
Cc1c(Cc2ccc(C(F)(F)F)nc2)c[nH]c1C(=O)NC1COCC1O (stereo not drawn),6.4,61,
Cc1c(-c2c[nH]c3cc(C(F)(F)F)ccc23)c[nH]c1C(=O)N1CC(F)(F)C1,0.62,16,
Cc1c(-c2c[nH]c3nc(C(F)(F)F)ccc23)c[nH]c1C(=O)N1CC(F)(F)C1,0.032,0.11,
Cc1c(-c2n[nH]c3cc(C(F)(F)F)ccc23)c[nH]c1C(=O)N1CC(F)(F)C1,0.48,3.6,
Cc1c(Cc2ccc(C(F)(F)F)nc2C#N)c[nH]c1C(=O)NC(C)c1nc[nH]n1 (racemic),2.3,1.9,

SMILES,EC50 (Plasmodium falciparum [1]) [µM],IC50 [2] [µM],EC50 (Plasmodium falciparum [3]) [µM]
Cc1c(Cc2ccc(C(F)(F)F)nc2)c[nH]c1C(=O)NC(C)c1cc[nH]n1 (racemic),0.043,0.27,
Cc1c(Cc2cccc(F)c2C#N)c[nH]c1C(=O)NC(C)c1nc[nH]n1 (racemic),1.1,0.48,
Cc1c(Cc2ccc(C(F)(F)F)nc2)c[nH]c1C(=O)NC(C)c1ncn(C)n1 (racemic),13,4,
Cc1cc(C(C)NC(=O)c2[nH]cc(C3(c4ccc(C(F)(F)F)nc4)CC3)c2C)n[nH]1 (stereo in doubt; form 1),3.3,,
Cc1c(C2(c3ccc(C(F)(F)F)nc3)CC2)c[nH]c1C(=O)NC(C)c1cn[nH]c1 (stereo in doubt; form 1),,,1.3
Cc1c(C2(c3ccc(C(F)F)nc3)CC2)c[nH]c1C(=O)NC(C)c1nc[nH]n1 (stereo in doubt; form 1),,0.15,0.18
Cc1c(C2(c3ccc(C(F)(F)F)cc3F)CC2)c[nH]c1C(=O)NC(C)c1nc[nH]n1 (stereo in doubt; form 1),,1.2,12
Cc1c(C(=O)NC(C)c2nc[nH]n2)[nH]c(Cl)c1Cc1ccc(C(F)(F)F)nc1 (stereo in doubt; form 1),,> 100,> 10
Cc1cc(C(C)NC(=O)c2[nH]c(C)c(Cc3ccc(C(F)(F)F)nc3)c2C#N)no1 (stereo in doubt; form 1),,3.2,1.8
Cc1c(-c2c[nH]c3nc(C(F)(F)F)ccc23)c[nH]c1C(=O)NC(C)c1nc[nH]n1 (stereo in doubt; form 1),,0.51,0.053
Cc1cc(C(C)NC(=O)c2[nH]cc(-c3n[nH]c4cc(C(F)(F)F)ccc34)c2C)no1 (stereo in doubt; form 1),,> 100,> 10
Cc1[nH]c(C(=O)N[C@H](C)c2cn[nH]c2)c(C#N)c1Cc1ccc(C(F)(F)F)nc1 (stereo in doubt; form 1),,42,> 1
Cc1c(C2(c3ccc(C(F)(F)F)nc3)CC2)c[nH]c1C(=O)NC(C)c1cc(C#N)[nH]n1 (stereo in doubt; form 1),1.7,,
Cc1c(Cc2ccc(F)c(F)c2)c[nH]c1C(=O)NC(C)c1nc[nH]n1 (stereo in doubt; form 1),,0.4,0.72
CNC(=O)c1cc(C(C)NC(=O)c2[nH]cc(C3(c4ccc(C(F)(F)F)nc4)CC3)c2C)n[nH]1 (stereo in doubt; form 1),,0.39,0.52
Cc1cc(C(C)NC(=O)c2[nH]cc(-c3c[nH]c4cc(C(F)(F)F)ccc34)c2C)no1 (stereo in doubt; form 1),,> 100,> 1
Cc1[nH]c(C(=O)NC(C)c2cnn(C)c2)c(C)c1Cc1ccc(C(F)(F)F)nc1 (stereo in doubt; form 1),,> 30,> 10
CNC(=O)c1cc(C(C)NC(=O)c2[nH]cc(Cc3ccc(C(F)(F)F)nc3)c2C)n[nH]1 (stereo in doubt; form 1),,1,0.17
Cc1c(C2(c3ccc(C(F)(F)F)nc3)CC2)c[nH]c1C(=O)NC(C)c1cc(C(N)=O)[nH]n1 (stereo in doubt; form 2),,57,0.0094
Cc1c(C2(c3ccc(C(F)(F)F)nc3)CC2)c[nH]c1C(=O)NC(C)c1cn[nH]c1 (stereo in doubt; form 2),,,0.0012
Cc1[nH]c(C(=O)NC(C)c2nc[nH]n2)c(C)c1Cc1ccc(C(F)(F)F)nc1 (stereo in doubt; form 2),,43,0.75
Cc1c(C2(c3ccc(C(F)F)nc3)CC2)c[nH]c1C(=O)NC(C)c1nc[nH]n1 (stereo in doubt; form 2),,> 30,> 20

SMILES,EC50 (Plasmodium falciparum [1]) [µM],IC50 [2] [µM],EC50 (Plasmodium falciparum [3]) [µM]
Cc1cc(C(C)NC(=O)c2[nH]c(C)c(Cc3ccc(C(F)(F)F)nc3)c2C)no1 (stereo in doubt; form 2),,53,> 1
Cc1c(C2(c3ccc(C(F)(F)F)cc3F)CC2)c[nH]c1C(=O)NC(C)c1nc[nH]n1 (stereo in doubt; form 2),,> 100,0.41
Cc1c(Cc2ccc(C(F)(F)F)nc2)c[nH]c1C(=O)NC(C)c1cc(C(N)=O)[nH]n1 (stereo in doubt; form 2),,33,16
Cc1c(Cc2ccc(C(F)(F)F)nc2)c[nH]c1C(=O)NC(C)c1cn[nH]c1 (stereo in doubt; form 2),,6.4,0.37
Cc1c(Cc2ccc(C(F)(F)F)nc2)c[nH]c1C(=O)NC(C)c1cnn(C)c1 (stereo in doubt; form 2),,,0.35
Cc1c(Cc2ccc(F)c3ccncc23)c[nH]c1C(=O)NC(C)c1nc[nH]n1 (stereo in doubt; form 2),,23,2.3
Cc1c(C2(c3cccc(C(F)(F)F)c3)CC2)c[nH]c1C(=O)NC(C)c1nc[nH]n1 (stereo in doubt; form 2),,> 30,2.8
Cc1c(Cc2ccc(C(F)(F)F)nc2)c[nH]c1C(=O)NC(C)c1nc[nH]n1 (stereo in doubt; form 2),,> 100,16
Cc1cc(C(C)NC(=O)c2[nH]cc(C3(c4ccc(C(F)(F)F)nc4)CC3)c2C)no1 (stereo in doubt; form 2),,80,0.0012
Cc1c(C2(c3ccc(C(F)(F)F)c(F)c3)CC2)c[nH]c1C(=O)NC(C)c1nc[nH]n1 (stereo in doubt; form 2),,34,5.4
Cc1c(-c2c[nH]c3nc(C(F)(F)F)ccc23)c[nH]c1C(=O)NC(C)c1nc[nH]n1 (stereo in doubt; form 2),,25,2
Cc1[nH]c(C(=O)NC(C)c2cn[nH]c2)c(C)c1Cc1ccc(C(F)(F)F)nc1 (stereo in doubt; form 2),,11,0.19
Cc1cc(C(C)NC(=O)c2[nH]cc(Cc3ccc(C(F)(F)F)cc3)c2C)no1 (stereo in doubt; form 2),,48,6.2
Cc1cc(C(C)NC(=O)c2[nH]cc(Cc3ccc(C(F)(F)F)nc3)c2C)no1 (stereo in doubt; form 2),,,0.45
Cc1cc(C(C)NC(=O)c2[nH]cc(Cc3ccc(C(F)(F)F)nc3)c2C)n[nH]1 (stereo in doubt; form 2),,68,> 10
Cc1c(Cc2ccc(C(F)(F)F)cc2F)c[nH]c1C(=O)NC(C)c1nc[nH]n1 (stereo in doubt; form 2),,36,5.8
Cc1c(Cc2ccc(C(F)(F)F)nc2)c[nH]c1C(=O)NC(C)c1cc(C#N)[nH]n1 (stereo in doubt; form 2),,54,6.1
Cc1c(Cc2ccc(F)c(F)c2)c[nH]c1C(=O)NC(C)c1nc[nH]n1 (stereo in doubt; form 2),,> 100,> 10
CNC(=O)c1cc(C(C)NC(=O)c2[nH]cc(C3(c4ccc(C(F)(F)F)nc4)CC3)c2C)n[nH]1 (stereo in doubt; form 2),,55,0.044
CNC(=O)c1cc(C(C)NC(=O)c2[nH]cc(Cc3ccc(C(F)(F)F)nc3)c2C)n[nH]1 (stereo in doubt; form 2),,89,4.8
Cc1c(C(=O)NC(C)c2nc[nH]n2)[nH]c(Cl)c1Cc1ccc(C(F)(F)F)nc1 (stereo in doubt; form 3),,64,
